Experimental data: US20170066759A1, “AROMATIC 5-MEMBERED HETEROCYCLIC DERIVATIVE HAVING TRPV4-INHIBITING ACTIVITY” (Shionogi & Co., Ltd., priority 2012, published 2017)

target: T1, human TRPV4 (hTRPV4/CHO cells) (Homo sapiens, UniProt Q9HBA0); assay: Test Example 1: TRPV4 inhibitory activity (IC50 value), 4α-PDD stimulation, Fluo4 calcium fluorescence (FLIPR TETRA); assay type: cell-based; conditions: Test Example 1, 4α-PDD stimulation, read-out: Test 1 IC50
T1 construct: expressed in transfected cells; host or cells: CHO-K1
T1 sequence (Q9HBA0 whole entry): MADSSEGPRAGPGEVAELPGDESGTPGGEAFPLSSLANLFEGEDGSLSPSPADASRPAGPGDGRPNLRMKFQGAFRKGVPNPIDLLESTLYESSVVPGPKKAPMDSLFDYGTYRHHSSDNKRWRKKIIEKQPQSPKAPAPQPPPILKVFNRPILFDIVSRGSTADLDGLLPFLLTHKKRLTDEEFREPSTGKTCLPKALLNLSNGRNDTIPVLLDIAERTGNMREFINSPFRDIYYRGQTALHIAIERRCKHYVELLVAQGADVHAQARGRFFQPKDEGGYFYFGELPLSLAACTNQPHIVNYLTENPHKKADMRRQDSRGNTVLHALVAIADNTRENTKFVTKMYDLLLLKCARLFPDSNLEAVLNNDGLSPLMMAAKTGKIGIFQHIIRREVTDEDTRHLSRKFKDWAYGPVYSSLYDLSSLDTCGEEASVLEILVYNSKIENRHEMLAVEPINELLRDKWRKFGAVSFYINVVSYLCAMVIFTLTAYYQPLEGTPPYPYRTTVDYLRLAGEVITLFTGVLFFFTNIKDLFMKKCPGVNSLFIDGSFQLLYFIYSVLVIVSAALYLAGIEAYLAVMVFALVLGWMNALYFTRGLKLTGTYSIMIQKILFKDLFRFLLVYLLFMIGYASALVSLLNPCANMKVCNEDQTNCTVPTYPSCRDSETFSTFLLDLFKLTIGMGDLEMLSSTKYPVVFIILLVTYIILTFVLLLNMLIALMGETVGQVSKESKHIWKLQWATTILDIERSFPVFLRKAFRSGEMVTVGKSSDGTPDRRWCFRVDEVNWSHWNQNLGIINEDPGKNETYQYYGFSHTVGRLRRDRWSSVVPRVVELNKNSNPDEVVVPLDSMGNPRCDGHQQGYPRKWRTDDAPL

SMILES	IC50 [nM]
Cc1nc(C)c(-c2csc(NC(=O)Cc3cccc(S(=O)(=O)N[C@H](c4ccccc4)C(F)(F)F)c3)n2)s1 [Compound I-499]	< 100
COC(=O)c1cccc(CC(=O)Nc2nc(-c3sc(C)nc3C)cs2)c1 [Compound I-488]	< 100
Cc1nc(C)c(-c2csc(NC(=O)Cc3cc(C#N)cc(C(=O)N[C@H](c4ccccc4)C(F)(F)F)c3)n2)s1 [Compound I-516]	< 100
O=C(Nc1nc(-c2sc(CO)nc2CO)cs1)[C@H]1C[C@H](F)C1 [Compound I-248]	1000 to 8000
Cc1nc(C)c(-c2csc(NC(=O)C3Cc4cc(S(=O)(=O)N(C)C)c(Cl)c(Cl)c4O3)n2)s1 (centres unmarked) [Compound I-196]	< 100
COc1nc(C)c(-c2csc(NC(=O)Cc3ccc(S(=O)(=O)C(F)(F)F)cc3)n2)s1 [Compound I-444]	< 100
COc1ccc(CN2CC(C(=O)Nc3nc(-c4sc(C)nc4C)cs3)C2)cn1 [Compound I-283]	1000 to 8000
Cc1nc(C)c(-c2csc(NC(=O)[C@@H]3C[C@H](c4ccccc4)CN3)n2)s1 [Compound I-179]	1000 to 8000
Cc1nc(C)c(-c2csc(NC(=O)Cc3cccc(N(C)C(=O)c4ccccc4)c3)n2)s1 [Compound I-432]	100 to 1000
CN(Cc1nc(CO)sc1-c1csc(NC(=O)Cc2ccc(S(=O)(=O)C(F)(F)F)cc2)n1)C(N)=O [Compound I-391]	100 to 1000
Cc1nc(C)c(-c2csc(NC(=O)Cc3cc(F)cc(C#N)c3)n2)s1 [Compound I-77]	< 100
Cc1nc(C)c(-c2csc(NC(=O)Cc3cccc(S(=O)(=O)Nc4ccccc4F)c3)n2)s1 [Compound I-501]	< 100
Cc1nc(C)c(-c2csc(NC(=O)CCC(=O)N[C@H](c3ccccc3)C(F)(F)F)n2)s1 [Compound I-494]	100 to 1000
Cc1nc(C)c(-c2csc(NC(=O)[C@@H]3C[C@@H](c4ccccc4)CN3C)n2)s1 [Compound I-217]	1000 to 8000
Cc1nc(C)c(-c2csc(NCC3Cc4cc(Cl)ccc4O3)n2)s1 (racemic) [II-48]	< 100
Cc1nc(C(C)O)sc1-c1csc(NC(=O)C2CCN(c3ccccc3)C2)n1 (centres unmarked) [Compound I-295]	100 to 1000
Cc1nc(CO)sc1-c1csc(NC(=O)C2CC3(CCC3)C2)n1 [Compound I-450]	< 100
Cc1nc(C)c(-c2csc(NC(=O)Cn3cc(C4(O)CCCCC4)nn3)n2)s1 [Compound I-189]	1000 to 8000
Cc1nc(CO)sc1-c1csc(NC(=O)C2CC(OCc3ccncc3)C2)n1 (centres unmarked) [Compound I-240]	1000 to 8000
Cc1nc(C)c(-c2csc(NC(=O)C3CC3(F)F)n2)s1 (centres unmarked) [Compound I-120]	1000 to 8000
Cc1nc(C)c(-c2csc(NC(=O)[C@@H]3C[C@@H](c4ccccc4)CN3C(=O)C(F)(F)F)n2)s1 [Compound I-218]	< 100
Cc1nc(C)c(-c2csc(NC(=O)Cn3cc(CNC(=O)OC(C)(C)C)nn3)n2)s1 [Compound I-421]	1000 to 8000
Cc1nc(CO)c(-c2csc(NC(=O)Cc3c(F)cccc3F)n2)s1 [Compound I-96]	100 to 1000
Cc1ccc(-c2csc(NC(=O)C3CC(F)C3)n2)s1 (centres unmarked) [II-5]	100 to 1000
Cc1nc(C)c(-c2csc(NC(=O)Cn3cc(-c4ccc(S(C)(=O)=O)cc4)nn3)n2)s1 [Compound I-422]	100 to 1000
CC(=O)c1nc(C)sc1-c1csc(NC(=O)Cc2c(F)cccc2F)n1 [Compound I-129]	100 to 1000

SMILES	IC50 [nM]
Cc1nc(C)c(-c2csc(NC(=O)[C@@H]3C[C@@H](c4ccccc4)CN3C(=O)C(C)C)n2)s1 [Compound I-291]	100 to 1000
Cc1nc(CO)sc1-c1csc(NC(=O)C2CC(OCc3cccnc3)C2)n1 (centres unmarked) [Compound I-247]	1000 to 8000
Cc1nc(C)c(-c2csc(NC(=O)Cc3ccc(S(=O)(=O)CC(F)(F)F)cc3)n2)s1 [Compound I-141]	< 100
Cc1nc(C)c(-c2nc(NC(=O)Cc3c(F)cccc3F)sc2C(=O)Nc2ccccc2)s1 [Compound I-75]	1000 to 8000
Cc1nc(C)c(-c2csc(NC(=O)C3(COCc4ccccc4)CN(c4ccc(C(F)(F)F)cc4)C3)n2)s1 (racemic) [Compound I-530]	< 100
Cc1nc(C)c(-c2csc(NC(=O)Cc3ccc(S(=O)(=O)C(C)C)cc3)n2)s1 [Compound I-122]	100 to 1000
CO[C@H]1C[C@@H](C(=O)Nc2nc(-c3sc(C)nc3C)cs2)C1 [Compound I-269]	1000 to 8000
Cc1nc(C)c(-c2nc(NC(=O)Cc3c(F)cccc3F)sc2-c2ccc(O)cc2)s1 [Compound I-69]	1000 to 8000
Cc1nc(C)c(-c2csc(NC(=O)Cn3cc(-c4ccccn4)nn3)n2)s1 [Compound I-426]	1000 to 8000
Cc1nc(C)c(-c2nc(NC(=O)Cc3c(F)cccc3F)sc2C(=O)Nc2ccc(Cl)cc2)s1 [Compound I-85]	1000 to 8000
Cc1nc(C)c(-c2csc(NC(=O)Cn3cc(-c4cncnc4)cn3)n2)s1 [Compound I-167]	1000 to 8000
Cc1nc(C)c(-c2csc(NC(=O)Cc3ccc(S(=O)(=O)N(C)c4cccc(Cl)c4)cc3)n2)s1 [Compound I-161]	< 100
O=C(Nc1nc(-c2sc(CO)nc2CO)cs1)C1CCC(C(F)(F)F)CC1 (centres unmarked) [Compound I-254]	< 100
Cc1nc(C)c(-c2csc(NC(=O)C3CC4(C3)CC(F)(F)C4)n2)s1 [Compound I-470]	< 100
CN(Cc1nc(CO)sc1-c1csc(NC(=O)Cc2ccc(S(=O)(=O)C(F)(F)F)cc2)n1)C(=O)CO [Compound I-436]	100 to 1000
Cc1nc(COCC(F)(F)F)sc1-c1csc(NC(=O)Cc2ccc(S(=O)(=O)C(F)(F)F)cc2)n1 [Compound I-460]	1000 to 8000
Cc1nc(CO)sc1-c1csc(NC(=O)[C@H]2C[C@@H](F)C2)n1 [Compound I-203]	1000 to 8000
Cc1nc(CO)sc1-c1csc(NC(=O)C2CC(c3ccccc3)C2)n1 (centres unmarked) [Compound I-547]	< 100
Cc1nc(C)c(-c2csc(NC(=O)Cn3cc(C(F)(F)F)cn3)n2)s1 [Compound I-124]	< 100
Cc1nc(C)c(-c2csc(NC(=O)C(C)c3c(F)cccc3F)n2)s1 (centres unmarked) [Compound I-102]	100 to 1000
CCOC(=O)c1nc(C)c(-c2csc(NC(=O)C3Oc4cc(Cl)c(Cl)cc4O3)n2)s1 [Compound I-270]	100 to 1000
Cc1nc(C)c(-c2nc(NC(=O)Cc3c(F)cccc3F)sc2-c2ccc(N(C)C)cc2)s1 [Compound I-67]	1000 to 8000
CNC(=O)c1nc(C)c(-c2csc(NC(=O)Cc3c(F)cccc3F)n2)s1 [Compound I-113]	1000 to 8000
CC(=O)NC(C)c1nc(CO)sc1-c1csc(NC(=O)Cc2ccc(S(=O)(=O)C(F)(F)F)cc2)n1 (racemic) [Compound I-472]	1000 to 8000
Cc1nc(C)c(-c2csc(NC(=O)Cc3cc(Br)cc(C(=O)N[C@H](c4ccccc4)C(F)(F)F)c3)n2)s1 [Compound I-510]	< 100
Cc1nc(C)c(-c2csc(NC(=O)C(O)c3c(F)cccc3F)n2)s1 (centres unmarked) [Compound I-103]	1000 to 8000

SMILES	IC50 [nM]
Cc1nc(CO)sc1-c1csc(NC(=O)C2CC2(F)F)n1 (centres unmarked) [Compound I-173]	100 to 1000
Cc1nc(C)c(-c2csc(NC(=O)[C@H]3C[C@@H](c4ccccc4)CN3)n2)s1 [Compound I-193]	1000 to 8000
CCOC(=O)C(C)(C)N1CC(C(=O)Nc2nc(-c3sc(C)nc3C)cs2)C1 [Compound I-279]	1000 to 8000
COC(=O)N1C[C@H](c2ccccc2)C[C@H]1C(=O)Nc1nc(-c2sc(C)nc2C)cs1 [Compound I-288]	< 100
Cc1nc(C)c(-c2nc(NC(=O)Cc3c(F)cccc3F)sc2-c2ccncc2)s1 [Compound I-60]	1000 to 8000
Cc1nc(C)c(-c2csc(NC(=O)C3Cc4ccccc4C3)n2)s1 [Compound I-88]	1000 to 8000
Cc1nc(C(C)(C)O)sc1-c1csc(NC(=O)Cc2c(F)cccc2F)n1 [Compound I-97]	100 to 1000
Cc1nc(C)c(-c2csc(NC(=O)[C@@H]3C[C@@H](c4ccccc4)CN3)n2)s1 [Compound I-178]	100 to 1000
Cc1nc(C)c(-c2csc(NC(=O)Cn3cc(-c4ccncc4)cn3)n2)s1 [Compound I-168]	100 to 1000
Cc1nc(CO)sc1-c1csc(NC(=O)CC2CCN(S(=O)(=O)CCC(F)(F)F)CC2)n1 [Compound I-452]	1000 to 8000
Cc1nc(C)c(-c2csc(N(CCCN3CCOCC3)C(=O)Cc3ccc(S(=O)(=O)C(F)(F)F)cc3)n2)s1 [Compound I-364]	1000 to 8000
Cc1nc(C)c(-c2csc(NC(=O)Cc3cccc(C(=O)N[C@@H](c4ccccc4)C(F)(F)F)c3)n2)s1 [Compound I-490]	< 100
Cc1nc(CO)sc1-c1csc(NC(=O)/C=C/c2ccccc2)n1 [Compound I-462]	100 to 1000
O=C(Nc1nc(-c2sc(CO)nc2CO)cs1)[C@H]1C[C@@H](OCc2ccc(Cl)cc2)C1 [Compound I-332]	100 to 1000
Cc1nc(CO)sc1-c1csc(NC(=O)C2CN(S(=O)(=O)c3ccccc3C(F)(F)F)C2)n1 [Compound I-305]	100 to 1000
Cc1nc(CN)sc1-c1csc(NC(=O)Cc2ccc(S(=O)(=O)C(F)(F)F)cc2)n1 [Compound I-396]	< 100
Cc1nc(CO)sc1-c1csc(NC(=O)Nc2ccc(C(F)(F)F)nc2)n1 [Compound I-447]	< 100
Cc1nc(CO)sc1-c1csc(NC(=O)[C@H]2C[C@@H](OCc3ccc(C(F)(F)F)cc3)C2)n1 [Compound I-335]	< 100
CN(C)Cc1nc(CO)sc1-c1csc(NC(=O)Cc2ccc(S(=O)(=O)C(F)(F)F)cc2)n1 [Compound I-412]	1000 to 8000
Cc1nc(C)c(-c2csc(NC(=O)Cc3cc(OCCN(C)C)cc(C(=O)N[C@H](c4ccccc4)C(F)(F)F)c3)n2)s1 [Compound I-514]	1000 to 8000
Cc1nc(C)c(-c2csc(NC(=O)N(C)c3c(F)cccc3F)n2)s1 [Compound I-91]	1000 to 8000
Cc1nc(C(C)O)sc1-c1csc(NC(=O)[C@H]2C[C@@H](F)C2)n1 (mixture of isomers) [Compound I-299]	1000 to 8000
Cc1nc(C)c(-c2csc(NC(=O)Cc3ccc(C(F)(F)F)cn3)n2)s1 [Compound I-118]	100 to 1000
Cc1nc(C)c(-c2csc(NC(=O)Cc3ccc(S(=O)(=O)Nc4ccccc4)cc3)n2)s1 [Compound I-164]	100 to 1000
Cc1nc(C)c(-c2csc(NC(=O)C3CN(c4ccc(C(F)(F)F)nc4)C3)n2)s1 [Compound I-286]	< 100
